Measurements from ChEMBL document CHEMBL5244223, “l,8-Naphthalimide based DNA intercalators and anticancer agents. A systematic review from 2007 to 2017” (Eur J Med Chem, 2018).

Key:
[1] = tested on: HeLa; experiment: Cytotoxicity against human HeLa cells assessed as inhibition of cell growth by MTT assay; type: functional, cell-based
[2] = tested on: HCT-116; experiment: Cytotoxicity against human HCT-116 cells assessed as inhibition of cell growth incubated for 72 hrs by MTT assay; type: functional, cell-based; conditions: HCT-116, 72 h
[3] = tested on: BGC-823; experiment: Antiproliferative activity against human BGC-823 cells assessed as inhibition of cell proliferation incubated for 24 hrs by MTT assay; type: functional, cell-based; conditions: BGC-823, 24 h
[4] = tested on: L02; experiment: Antiproliferative activity against human HL7702 cells assessed as inhibition of cell proliferation incubated for 24 hrs by MTT assay; type: functional, cell-based; conditions: L02, 24 h
[5] = tested on: MCF7; experiment: Antiproliferative activity against human MCF7 cells assessed as inhibition of cell proliferation incubated for 24 hrs by MTT assay; type: functional, cell-based; conditions: MCF7, 24 h
[6] = tested on: Clupea harengus; experiment: Binding affinity to Atlantic herring DNA assessed as binding constant by fluorescence based EtBr-UV absorption spectral analysis
[7] = tested on: K562; experiment: Cytotoxicity against human K562 cells assessed as inhibition of cell growth incubated for 48 hrs by MTT assay; type: functional, cell-based; conditions: K562, 48 h
[8] = tested on: SMMC-7721; experiment: Cytotoxicity against human SMMC-7721 cells assessed as inhibition of cell growth incubated for 48 hrs by MTT assay; type: functional, cell-based; conditions: SMMC-7721, 48 h
[9] = tested on: HepG2; experiment: Cytotoxicity against human HepG2 cells assessed as inhibition of cell growth incubated for 48 hrs by MTT assay; type: functional, cell-based; conditions: HepG2, 48 h
[10] = tested on: HCT-116; experiment: Cytotoxicity against human HCT-116 cells assessed as inhibition of cell growth incubated for 48 hrs by MTT assay; type: functional, cell-based; conditions: HCT-116, 48 h
[11] = tested on: Jurkat; experiment: Antiproliferative activity against human Jurkat cells assessed as inhibition of cell proliferation incubated for 72 hrs by MTT assay; type: functional, cell-based
[12] = molecular target: Salmon testes DNA; experiment: Binding affinity to salmon Testis DNA assessed as equilibrium binding constant by steady-state fluorescence spectroscopic analysis; conditions: Salmo salar
[13] = tested on: HL-60; experiment: Cytotoxicity against human HL-60 cells assessed as inhibition of cell growth incubated for 96 hrs by MTT assay; type: functional, cell-based; conditions: HL-60, 96 h
[14] = tested on: U-937; experiment: Cytotoxicity against human U-937 cells assessed as inhibition of cell growth incubated for 96 hrs by MTT assay; type: functional, cell-based; conditions: U-937, 96 h
[15] = tested on: Calf thymus DNA; experiment: Binding affinity to calf thymus DNA assessed as binding constant by fluorescence based EtBr-displacement based UV-Vis spectroscopic analysis; type: nucleic-acid assay; conditions: Bos taurus
[16] = tested on: Staphylococcus aureus; experiment: Antibacterial activity against Staphylococcus aureus ATCC25923 assessed as inhibition of bacterial growth incubated for 24 hrs by two-fold serial dilution assay; type: functional
[17] = tested on: Staphylococcus aureus; experiment: Antibacterial activity against methicillin-resistant Staphylococcus aureus N315 assessed as inhibition of bacterial growth incubated for 24 hrs by two-fold serial dilution assay; type: functional
[18] = tested on: Bacillus subtilis; experiment: Antibacterial activity against Bacillus subtilis ATCC6633 assessed as inhibition of bacterial growth incubated for 24 hrs by two-fold serial dilution assay; type: functional
[19] = tested on: Micrococcus luteus; experiment: Antibacterial activity against Micrococcus luteus assessed as inhibition of bacterial growth incubated for 24 hrs by two-fold serial dilution assay; type: functional
[20] = tested on: Proteus; experiment: Antibacterial activity against Proteus ATCC13315 assessed as inhibition of bacterial growth incubated for 24 hrs by two-fold serial dilution assay; type: functional
[21] = tested on: Escherichia coli; experiment: Antibacterial activity against Escherichia coli JM109 assessed as inhibition of bacterial growth incubated for 24 hrs by two-fold serial dilution assay; type: functional
[22] = tested on: Pseudomonas aeruginosa; experiment: Antibacterial activity against Pseudomonas aeruginosa assessed as inhibition of bacterial growth incubated for 24 hrs by two-fold serial dilution assay; type: functional
[23] = tested on: Salmonella typhi; experiment: Antibacterial activity against Salmonella enterica subsp. enterica serovar Typhi assessed as inhibition of bacterial growth incubated for 24 hrs by two-fold serial dilution assay; type: functional
[24] = tested on: MCF7; experiment: Cytotoxicity against human MCF7 cells assessed as inhibition of cell growth by MTT assay; type: functional, cell-based
[25] = tested on: SGC-7901; experiment: Cytotoxicity against human SGC-7901 cells assessed as inhibition of cell growth by MTT assay; type: functional, cell-based
[26] = tested on: A549; experiment: Cytotoxicity against human A549 cells assessed as inhibition of cell growth by MTT assay; type: functional, cell-based
[27] = tested on: Calf thymus DNA; experiment: Binding affinity to calf thymus DNA assessed as DNA intercalation by measuring binding constant by fluorescence spectroscopic assay; type: nucleic-acid assay; conditions: Bos taurus

With CN(C)CCN1C(=O)c2cccc3c2c(cc2nc(C(F)(F)F)c(C(F)(F)F)nc23)C1=O the IC50 [1] was 3800 nM.
O=C1c2cccc3cccc(c23)C(=O)N1CCCN(CCCN(CCO)CCO)CCCN1C(=O)c2cccc3cccc(c23)C1=O was tested, and the IC50 [2] was 820 nM.
Molecule O=C1c2cccc3cccc(c23)C(=O)N1CCCNCCCN(CCCl)CCCl has an IC50 [2] of 1400 nM.
In the case of CN(C)CCCN1C(=O)c2cccc3c2c(cc2[nH]c(-c4c[nH]c5ccccc45)nc23)C1=O, the IC50 [3] is reported as 700 nM, the IC50 [4] is reported as 700 nM and the IC50 [5] is reported as 700 nM.
For NCCNCCCCCN1C(=O)c2cccc3cccc(c23)C1=O, the Kb [6] was 1.15 10^4/M.
Molecule COC(=O)c1ccc2c3c(cccc13)C(=O)N(CCN(C)C)C2=O has an IC50 [7] of 13700 nM, an IC50 [8] of 13700 nM and an IC50 [9] of 13700 nM. It also gave an IC50 [10] of 13700 nM.
For NCCCCNCCCCN1C(=O)c2cccc3cccc(c23)C1=O, the Kb [6] was 1.15 10^4/M.
For O=C1c2cccc3cccc(c23)C(=O)N1CCNCc1ccccn1, the IC50 [11] was 5580 nM.
For O=C1c2cccc3cccc(c23)C(=O)N1CC[n+]1ccccc1, the Kb [12] was 2 10^4/M.
For O=C1c2cccc3c([N+](=O)[O-])ccc(c23)C(=O)N1CCCO, the IC50 [13] was 700 nM and the IC50 [14] was 700 nM.
In the case of O=C1c2cccc3c([N+](=O)[O-])ccc(c23)C(=O)N1c1ccc(-c2cc[n+]3c(c2)-c2cccc[n+]2CC3)cc1, the K [15] is reported as 1.7 10^7/M.
O=C1c2cccc3c(Sc4nc5ccccc5n4Cc4cccc(Cl)c4)ccc(c23)C(=O)N1CCCCn1cncn1 was tested, and the MIC [16] was greater than 512 µg/mL, the MIC [17] was greater than 512 µg/mL and the MIC [18] was greater than 512 µg/mL. For the same molecule, the MIC [19] was greater than 512 µg/mL, the MIC [20] was greater than 512 µg/mL and the MIC [21] was greater than 512 µg/mL. The MIC [22] was greater than 512 µg/mL and the MIC [23] was greater than 512 µg/mL.
Molecule O=C1c2cccc3cccc(c23)C(=O)N1CCCNCCCN(CCO)CCO has an IC50 [2] of 6960 nM.
O=C1c2cccc3cccc(c23)C(=O)N1CCCCCC/N=C/c1ccccn1 gave an IC50 [11] of 5580 nM.
In the case of CCNN1C(=O)c2cccc3c2c(cc2[nH]c(-c4c[nH]c5ccccc45)nc23)C1=O, the IC50 [3] is reported as 700 nM, the IC50 [4] is reported as 700 nM and the IC50 [5] is reported as 700 nM.
Molecule O=C1c2cccc3c(Sc4nc5ccccc5n4Cc4ccc(Cl)cc4)ccc(c23)C(=O)N1CCCCn1cncn1 has an MIC [16] greater than 512 µg/mL, an MIC [17] greater than 512 µg/mL and an MIC [18] greater than 512 µg/mL. It also gave an MIC [19] greater than 512 µg/mL, an MIC [20] greater than 512 µg/mL and an MIC [21] greater than 512 µg/mL. The MIC [22] was greater than 512 µg/mL and the MIC [23] was greater than 512 µg/mL.
Molecule O=C1c2cccc3cccc(c23)C(=O)N1CCCN(CCCN(CCCl)CCCl)CCCN1C(=O)c2cccc3cccc(c23)C1=O has an IC50 [2] of 350 nM.
For CN(C)c1ccc2c3c(cccc13)C(=O)N(CCc1cc[n+](C)cc1)C2=O, the Kb [12] was 1.38 10^5/M.
Work on CCCCCCCCNN1C(=O)c2cccc3c2c(cc2[nH]c(-c4c[nH]c5ccccc45)nc23)C1=O yielded an IC50 [3] of 700 nM, an IC50 [4] of 700 nM and an IC50 [5] of 700 nM.
CCN(CC)CCN1C(=O)c2cccc3c2c(cc2[nH]c(-c4c[nH]c5ccccc45)nc23)C1=O was tested, and the IC50 [3] was 8200 nM, the IC50 [4] was 8200 nM and the IC50 [5] was 8200 nM.
In the case of O=C1c2cccc3cccc(c23)C(=O)N1CCCC/N=C/c1ccccn1, the IC50 [11] is reported as 5580 nM.
Molecule CN(C)CCN1C(=O)c2cccc3c(N4CCC[C@H]4CO)ccc(c23)C1=O has an IC50 [1] of 870 nM, an IC50 [24] of 870 nM and an IC50 [25] of 870 nM. For the same molecule, the IC50 [26] was 870 nM and the Kb [27] was 1.8 10^4/M.
For Cc1ccc(-c2cc[n+]3c(c2)-c2cccc[n+]2CC3)cc1, the K [15] was 2.8 10^6/M.
CCCCOC(=O)c1ccc2c3c(cccc13)C(=O)N(CCN(C)C)C2=O showed an IC50 [7] greater than 50000 nM, an IC50 [8] greater than 50000 nM and an IC50 [9] greater than 50000 nM. It also gave an IC50 [10] greater than 50000 nM.
